{"source": "patent US11685710B2", "about": "“Cationic sulfonamide amino lipids and amphiphilic zwitterionic amino lipids” (The Board of Regents of the University of Texas System, priority 2016, dated 2023)", "key": {"HeLa-Luc-Cas9 cells": {"tested_on": "HeLa-Luc-Cas9 cells", "assay": "Kinetic assay of sgRNA and siRNA delivery (luciferase expression over time)", "type": "cell-based", "description": "The kinetics of luciferase expression after silencing/editing by siRNA and sgRNA were determined in HeLa-Luc-Cas9 cells. For time points <48 h, ZNPs encapsulating sgRNA or siRNA were delivered to HeLa-Luc-Cas9 cells in 96-well plates at a density of 5K cells per well. After 0.5, 1, 2, 4, 11, 20, 30 and 44 h time point, the cell viability and luciferase expression were determined by the One-Glow+Tox assay. For longer time points, cells were treated in 6-well plates. Beginning at the 2 day time point, cells were aspirated, washed with 1×PBS, trypsinized in 200 μL trypsin and re-suspended in 1800 μL medium. 1 mL of each cell suspension was added to a fresh 6-well plate containing 1 mL DMEM (2 mL total) and returned to the incubator. Of the remaining cell suspension, 50 μL was transferred to a 96-well white-opaque plate (10 wells per sample). Cell viability was determined using the Cell-Titer Glo assay normalized to untreated cells, while relative luciferase expression was determined using the One-Glo assay and normalized against control (siCtrl or sgCtrl). Data was plotted as an average of 5 measurements+/−standard deviation."}, "A549-Luc cells": {"tested_on": "A549-Luc cells", "assay": "Cas9 mRNA delivery: mRNA level (RT-qPCR) and Cas9 protein expression (western blot)", "type": "cell-based", "details": "for level of Cas9 mRNA: A549 lung cancer cells", "description": "The cells were lysed in cold RIPA buffer (Thermo Scientific), the lysate cleared by centrifugation and total protein in the supernatant quantified by the BCA assay (Pierce). 50 μg total protein was loaded on 4-20% precast polyacrylamide gel and transferred to a nitrocellulose membrane (BioRad). The membrane was blocked in 5% nonfat milk for 1 hour at RT, and then incubated with primary antibody at 4° C. overnight (Cas9 antibody, 1:1000, Cell Signaling, 14697S; beta-actin antibody, 1:2000, Cell Signaling, 4970). Secondary antibodies were applied at RT for 1 hour (anti-rabbit IgG, HRP-linked antibody, Cell Signaling, 7074, anti-mouse IgG, HRP-linked antibody, Cell Signaling, 7076), and then the membrane was developed and detected on X-ray film.\nCells were transfected with Cas9 mRNA for the indicated time point in a 6-well plate and 0.5 μg/mL mRNA for the indicated time point. Total RNA was extracted using the TRIzol reagent according to the manufacturer's protocol. The RNA was reverse transcribed using the iScript Reverse Transcription kit (BioRad) and the real-time qPCR was run on a Bio-Rad C1000 Touch Thermal Cycler (CFX384 Real-time System). Each reaction was made with iTaq Universal SYBR Green 2× Supermix (Bio-Rad). The qPCR program is as follows:\nHuman β-actin was used as a control and mRNA levels were normalized to fold actin and plotted as an average of two independent experiments."}, "[1]": {"tested_on": "Lox-Stop-Lox tdTomato (tdTO) cassette", "assay": "In vivo delivery of Cas9 mRNA and sgLoxP (tdTomato activation)", "design": "species or system mice", "details": "5 mg/kg", "description": "ZA3-Ep10 ZNPs encapsulating Cas9 mRNA and sgLoxp were prepared according to the in vivo nanoparticle formulation protocol using the Nanoassemblr microfluidic mixing device. The lipid mix contained 50 ZA3-Ep10:38.5 cholesterol:0.5 PEG-lipid molar ratios, and the particles were formulated at a 7.5:1 ZAL:total RNA weight ratio. The Cas9 mRNA:sgLoxP weight ratio was maintained at 4:1. […] After which they were sacrificed and the major organs imaged using the IVIS Lumina system for fluorescence expression (dsRed filter set) compared to an uninjected Rosa 26-LSL-tdTomato mouse. A liver specific Cre recombinase adeno-associated virus (Cre-AAV8) injected intravenously via tail vein injection (4 days) was used as a positive control.\nTissue were fixed in 4% paraformaldehyde (PFA) at RT for 2 hours, then changed in 30% sucrose (in PBS) at 4° C. overnight. Then the tissues were embedded in Cryo-gel (Leica Biosystems), and frozen in dry ice. The blocks were sectioned using Cryostat machine (Leica Biosystems) at 8 μm thickness. […]\nFor detection of Tomato positive populations, primary hepatocytes (2×10^6/mL) were isolated and stained with DAPI (Roche, 2 μg/mL) for dead cell exclusion. Cells were analyzed with BD FACSAria Fusion machine (BD Biosciences). Tomato positive cells were counted in DAPI negative (live cell) populations."}, "[2]": {"tested_on": "HeLa-Luc-Cas9 cells; IGROV1 cells", "assay": "Delivery efficacy of ZA3-Ep10 versus cationic structural analogue (siLuc, sgLuc, Luc mRNA)", "type": "cell-based", "details": "siRNA, sgRNA and mRNA cargos; 7.5:1 weight ratio", "description": "The ZNP or LNP formulation was fixed at 7.5:1 weight ratio ZAL or Cationic analogue to RNA. The lipid mixture for the NPs was 50:38.5:0.5 ZAL or cationic analogue: cholesterol: PEG-lipid, while for the A3-Ep14 NPs the zwitterionic phospholipid was titrated from 0 to 50% in the lipid mix. The nanoparticles were formulated by manual mixing using the in vitro formulation protocol. RNA binding was determined by the Ribogreen assay (N=3+/−standard deviation), while nanoparticle size was determined by dynamic light scattering (N=3+/−standard deviation). Luciferase silencing or editing of siLuc and sgLuc NPs was assayed in HeLa-Luc-Cas9 cells (7.35 nM sgRNA, 17.9 nM siRNA), while luciferase expression by Luc mRNA NPs was evaluated in IGROV1 cells (0.77 nM mRNA). Cells were assays after 40 h incubation time by the One-Glo+Tox assay and plotted with viability (dots) and luciferase expression (bars) as mean+/−standard deviation (N=4)."}}}
{"smiles": "CCCCCCCCC(O)CN(CCC(=O)NCC[N+](C)(C)CCCS(=O)(=O)[O-])CCN(CCN(CC(O)CCCCCCCC)CC(O)CCCCCCCC)CCN(CC(O)CCCCCCCC)CC(O)CCCCCCCC", "note": "(stereo not drawn) [ZA3-Ep10]", "values": [{"measurement": "decrease of luciferase expression", "setting": "HeLa-Luc-Cas9 cells; sgLuc, 20 h", "result": 40, "unit": "%"}, {"measurement": "decrease of luciferase expression", "setting": "HeLa-Luc-Cas9 cells; sgLuc, after 2 days", "result": 95, "unit": "%"}, {"measurement": "remaining luciferase expression", "setting": "HeLa-Luc-Cas9 cells; sgLuc, persisted throughout the assay (9 days)", "result": 5, "unit": "%"}, {"measurement": "time luciferase remained low", "setting": "HeLa-Luc-Cas9 cells; siLuc", "result": "about 3 days"}, {"measurement": "time until protein expression reached baseline level", "setting": "HeLa-Luc-Cas9 cells; siLuc, after transfection", "result": 6, "unit": "days"}, {"measurement": "luciferase silenced", "setting": "HeLa-Luc-Cas9 cells; siLuc, by 20 h", "result": 92, "unit": "%"}, {"measurement": "decrease of luciferase expression", "setting": "HeLa-Luc-Cas9 cells; siLuc, within the first 4 h", "result": 40, "unit": "%"}, {"measurement": "time of highest Cas9 protein expression", "setting": "A549-Luc cells; A549 cells, low at 4 h, increased by 12 h", "result": 36, "unit": "h"}, {"measurement": "level of Cas9 mRNA", "setting": "A549-Luc cells; after 4 h incubation", "result": "> 4", "unit": "fold actin"}, {"measurement": "level of Cas9 mRNA", "setting": "A549-Luc cells; over the next 45 h", "result": 0.7, "unit": "fold actin"}, {"measurement": "fluorescent signal 2 months after treatment", "setting": "[1]", "result": "significant fluorescent signal in the liver and kidneys"}, {"measurement": "efficacy compared with cationic analogue", "setting": "[2]", "result": "outperformed the cationic analogue supplemented with phospholipid"}]}
